According to ChEMBL document CHEMBL1158604, “New pyrazolo[1,5a]pyrimidines as orally active inhibitors of Lck” (Bioorg Med Chem Lett, 2010):
Blank lines part the entries; values can stand above or below the compound they belong to. The source made the active and inactive calls. No cut-off for these calls is given here.

Assays:
[1] = target: Proto-oncogene tyrosine-protein kinase Src (Homo sapiens, UniProt P12931)
[2] = target: Tyrosine-protein kinase HCK (Homo sapiens, UniProt P08631)
[3] = target: Vascular endothelial growth factor receptor 2 (Homo sapiens, UniProt P35968)
[4] = target: T1, Tyrosine-protein kinase Lck (Homo sapiens, UniProt P06239)
Liver microsomes = conditions: rat
Description: Clearance in rat liver microsomes

in vitro = conditions: rat, liver microsomes
Description: Half life in rat liver microsomes

[5] = target: RAC-alpha serine/threonine-protein kinase (Homo sapiens, UniProt P31749); assay: Inhibition of PKBalpha
[6] = target: Tyrosine-protein kinase ABL1 (Homo sapiens, UniProt P00519); assay: Inhibition of ABL
Mus musculus [7] = assay: Immunosuppressive activity in BALB/c mouse assessed as CD3 antibody-induced IL2 production at 30 mg/kg, po relative to control; format: functional
[8] = target: Insulin-like growth factor 1 receptor (Homo sapiens, UniProt P08069); assay: Inhibition of IGF1R
[9] = target: Proto-oncogene tyrosine-protein kinase receptor Ret (Homo sapiens, UniProt P07949); assay: Inhibition of Ret
[10] = target: Tyrosine-protein kinase ZAP-70 (Homo sapiens, UniProt P43403); assay: Inhibition of ZAP70
[11] = target: Tyrosine-protein kinase JAK2 (Homo sapiens, UniProt O60674); assay: Inhibition of JAK2
[12] = Volume of distribution in rat; format: ADME, organism-based; conditions: in vivo
[13] = target: Receptor tyrosine-protein kinase erbB-2 (Homo sapiens, UniProt P04626); assay: Inhibition of Her2
Mus musculus [14] = assay: Immunosuppressive activity in BALB/c mouse assessed as CD3 antibody-induced IL2 production at 100 mg/kg, po relative to control; format: functional
[15] = Inhibition of cABL T315 mutant
[16] = target: Hepatocyte growth factor receptor (Homo sapiens, UniProt P08581); assay: Inhibition of cMet
[17] = target: ALK tyrosine kinase receptor (Homo sapiens, UniProt Q9UM73); assay: Inhibition of Alk
Mus musculus [18] = assay: Immunosuppressive activity in BALB/c mouse assessed as CD3 antibody-induced IL2 production at 10 mg/kg, po relative to control; format: functional
[19] = target: Fibroblast growth factor receptor 3 (Homo sapiens, UniProt P22607); assay: Inhibition of FGFR3K
[20] = target: Tyrosine-protein kinase JAK3 (Homo sapiens, UniProt P52333); assay: Inhibition of JAK3
[21] = Half life in rat; format: ADME, organism-based; conditions: in vivo
[22] = Clearance in rat; format: ADME, organism-based; conditions: in vivo
[23] = target: Platelet-derived growth factor receptor alpha (Homo sapiens, UniProt P16234); assay: Inhibition of PDGFRalpha
[24] = target: Mast/stem cell growth factor receptor Kit (Homo sapiens, UniProt P10721); assay: Inhibition of cKIt
Insulin receptor = Insulin receptor (Homo sapiens, UniProt P06213); assay: Inhibition of INSR
[25] = target: Cyclin-dependent kinase 2/cyclin A (Homo sapiens, UniProt P24941); assay: Inhibition of CDK2/cyclinA; format: protein-complex assay
[26] = Oral bioavailability in rat; format: ADME, organism-based; conditions: in vivo
[27] = target: Tyrosine-protein kinase JAK1 (Homo sapiens, UniProt P23458); assay: Inhibition of JAK1
Mus musculus [28] = assay: Immunosuppressive activity in BALB/c mouse assessed as concanavalin A-induced T cell activation at 100 mg/kg, po relative to control; format: functional, organism-based; set-up: dose 100 mg/kg
[29] = target: T1, Tyrosine-protein kinase Lck; assay: Inhibition of LCK in human Jurkat cells assessed as ZAP70 phosphorylation by FACS assay; format: cell-based
Angiopoietin-1 receptor = Angiopoietin-1 receptor (Homo sapiens, UniProt Q02763); assay: Inhibition of tie2

IC50 [1]: 1000 nM
IC50 [2]: 256 nM
IC50 [3]: 8300 nM
SMILES: CN1CCN(c2ccc(-c3cnn4c(N)c(-c5ccc(NC(=O)c6ccc(C(F)(F)F)cc6)cc5)cnc34)cc2)CC1

SMILES: CC(C)COC(=O)Nc1ccc(-c2cnc3c(-c4cccc(N5CCNCC5)c4)cnn3c2N)cc1
IC50 [1]: 642 nM
IC50 [2]: 310 nM
IC50 [4]: 7 nM
CL (Liver microsomes): 29 µL/min
IC50 [3]: 2100 nM
half-life (in vitro): 48 min

IC50 [1]: 143 nM
IC50 [2]: 21 nM
SMILES: CN1CCN(c2ccc(-c3cnn4c(N)c(-c5ccc(NC(=O)NCC6CCCCC6)cc5)cnc34)cc2)CC1

SMILES: CC(C)COC(=O)Nc1ccc(-c2cnc3c(-c4cccc(N5CCOCC5)c4)cnn3c2N)cc1
IC50 [1]: > 1000 nM
IC50 [2]: > 1000 nM
IC50 [4]: 699 nM
IC50 [3]: 7350 nM

IC50 [1]: > 1000 nM
IC50 [2]: 295 nM
IC50 [3]: 2300 nM
SMILES: CN1CCN(c2cccc(-c3cnn4c(N)c(-c5ccc(NC(=O)c6ccc(C(F)(F)F)cc6)cc5)cnc34)c2)CC1

SMILES: CN1CCN(c2ccc(-c3cnn4c(N)c(-c5ccc(NC(=O)Oc6ccccc6)cc5)cnc34)cc2)CC1
IC50 [1]: 394 nM
IC50 [2]: 88 nM
IC50 [3]: 1000 nM

IC50 [5]: > 10 µM
IC50 [6]: 40 nM
IC50 [8]: > 10 µM
IC50 [9]: 4.7 µM
IC50 [10]: > 10 µM
IC50 [11]: > 10 µM
Vd [12]: 6.42 L/kg
IC50 [1]: 662 nM
IC50 [13]: > 10 µM
IC50 [15]: 3.25 µM
IC50 [2]: 181 nM
IC50 [16]: > 10 µM
IC50 [4]: 22 nM
CL (Liver microsomes): 161.2 µL/min
IC50 [17]: > 10 µM
IC50 [19]: > 10 µM
IC50 [20]: > 10 µM
half-life [21]: 342 min
IC50 [3]: 4230 nM
clearance [22]: 32.1 mL/min/kg
IC50 [23]: 74 nM
IC50 [24]: 89 nM
IC50 (Insulin receptor): > 10 µM
IC50 [25]: > 10 µM
bioavailability [26]: 95%
half-life (in vitro): 8.6 min
IC50 [27]: > 10 µM
IC50 [29]: 107 nM
IC50 (Angiopoietin-1 receptor): 1000 nM
SMILES: CC(C)COC(=O)Nc1ccc(-c2cnc3c(-c4ccc(N5CCN(C)CC5)cc4)cnn3c2N)cc1
inhibition in vivo at 30 mg/kg (Mus musculus [7]): 21%
inhibition in vivo at 100 mg/kg (Mus musculus [14]): 57%
inhibition in vivo at 10 mg/kg (Mus musculus [18]): -7%
Activity (Mus musculus [28]): Active

IC50 [1]: > 1000 nM
IC50 [2]: > 1000 nM
IC50 [4]: 116 nM
IC50 [3]: > 10000 nM
SMILES: Cc1nc2c(-c3cccc(N4CCN(C)CC4)c3)cnn2c(N)c1-c1ccc(NC(=O)OCC(C)C)cc1

IC50 [1]: > 1000 nM
IC50 [2]: > 1000 nM
IC50 [4]: 28 nM
IC50 [3]: 5400 nM
SMILES: CN1CCN(c2cccc(-c3cnn4c(N)c(-c5ccc(NS(=O)(=O)c6cccc(Cl)c6Cl)cc5)cnc34)c2)CC1

SMILES: CN1CCN(c2cccc(-c3cnn4c(N)c(-c5ccc(NC(=O)Oc6ccccc6)cc5)cnc34)c2)CC1
IC50 [1]: 688 nM
IC50 [2]: 193 nM
IC50 [3]: 4100 nM

IC50 [1]: 442 nM
IC50 [2]: 342 nM
IC50 [4]: 30 nM
IC50 [3]: 470 nM
SMILES: CN1CCN(c2cccc(-c3cnn4c(N)c(-c5ccc(O)cc5)cnc34)c2)CC1

IC50 [1]: 762 nM
IC50 [2]: 270 nM
IC50 [4]: 7 nM
CL (Liver microsomes): 11.2 µL/min
IC50 [3]: 1900 nM
half-life (in vitro): 124 min
SMILES: CC(C)COC(=O)Nc1ccc(-c2cnc3c(-c4cccc(N5CCN(C(=O)CN)CC5)c4)cnn3c2N)cc1

IC50 [1]: 135 nM
IC50 [2]: 37 nM
IC50 [3]: 690 nM
SMILES: CN1CCN(c2cccc(-c3cnn4c(N)c(-c5ccc(NC(=O)CCC6CCCC6)cc5)cnc34)c2)CC1

IC50 [1]: 227 nM
IC50 [2]: 70 nM
IC50 [3]: 130 nM
SMILES: CN1CCN(c2cccc(-c3cnn4c(N)c(-c5ccc(NC(=O)NCC6CCCCC6)cc5)cnc34)c2)CC1

IC50 [1]: > 1000 nM
IC50 [2]: 215 nM
SMILES: CN1CCN(c2ccc(-c3cnn4c(N)c(-c5ccc(NC(=O)Nc6ccccc6Cl)cc5)cnc34)cc2)CC1

IC50 [1]: > 1000 nM
IC50 [2]: 676 nM
IC50 [4]: 209 nM
CL (Liver microsomes): 58.4 µL/min
IC50 [3]: > 10000 nM
half-life (in vitro): 23.7 min
SMILES: CC(C)COC(=O)Nc1ccc(-c2cnc3c(-c4cccc(N5CCN(S(C)(=O)=O)CC5)c4)cnn3c2N)cc1

IC50 [1]: > 1000 nM
IC50 [2]: > 1000 nM
IC50 [4]: 546 nM
IC50 [3]: 9200 nM
SMILES: COc1cc(-c2cnc3c(-c4cccc(N5CCN(C)CC5)c4)cnn3c2N)ccc1NC(=O)OCC(C)C

IC50 [1]: 142 nM
IC50 [2]: 14 nM
IC50 [3]: 1020 nM
SMILES: CN1CCN(c2ccc(-c3cnn4c(N)c(-c5ccc(NC(=O)CCC6CCCC6)cc5)cnc34)cc2)CC1

IC50 [1]: > 1000 nM
IC50 [2]: > 1000 nM
IC50 [4]: > 1000 nM
IC50 [3]: 500 nM
SMILES: Cc1nn2c(N)c(-c3cccc(O)c3)cnc2c1-c1ccc(N2CCN(C)CC2)cc1

IC50 [1]: 554 nM
IC50 [2]: 110 nM
IC50 [3]: 6000 nM
SMILES: CN1CCN(c2cccc(-c3cnn4c(N)c(-c5ccc(NC(=O)N(C)C6CCCCC6)cc5)cnc34)c2)CC1

IC50 [1]: 497 nM
IC50 [2]: 178 nM
IC50 [3]: 435 nM
SMILES: CN1CCN(c2ccc(-c3cnn4c(N)c(-c5ccc(NC(=O)N(C)C6CCCCC6)cc5)cnc34)cc2)CC1

IC50 [1]: 1710 nM
IC50 [2]: 594 nM
CL (Liver microsomes): 612.5 µL/min
IC50 [3]: 5350 nM
half-life (in vitro): 2.3 min
SMILES: CC(C)COC(=O)Nc1ccc(-c2cnc3c(-c4cccc(N5CCN(C)CC5)c4)cnn3c2N)cc1

IC50 [1]: 1000 nM
IC50 [2]: 172 nM
SMILES: CN1CCN(c2cccc(-c3cnn4c(N)c(-c5ccc(NC(=O)Nc6ccccc6Cl)cc5)cnc34)c2)CC1

IC50 [1]: 462 nM
IC50 [2]: 456 nM
IC50 [4]: 23 nM
IC50 [3]: 3400 nM
SMILES: Cc1cc(NC(=O)OCC(C)C)ccc1-c1cnc2c(-c3cccc(N4CCN(C)CC4)c3)cnn2c1N

IC50 [1]: 396 nM
IC50 [2]: 85 nM
IC50 [4]: 36 nM
IC50 [3]: 1300 nM
SMILES: CN1CCN(c2ccc(-c3cnn4c(N)c(-c5ccc(O)cc5)cnc34)cc2)CC1

IC50 [1]: 2 nM
IC50 [2]: 8 nM
IC50 [4]: 8 nM
IC50 [3]: 96 nM
SMILES: CN1CCN(c2ccc(-c3cnn4c(N)c(-c5cccc(O)c5)cnc34)cc2)CC1

IC50 [1]: 1000 nM
IC50 [2]: 349 nM
IC50 [4]: 37 nM
IC50 [3]: 2200 nM
SMILES: COCCN1CCN(c2ccc(-c3cnn4c(N)c(-c5ccc(NC(=O)OCC(C)C)cc5)cnc34)cc2)CC1
